Test results from patent publication US9937250B2, “Immunogenic tumor associated stromal cell antigen peptides and methods of their use” (University of Pittsburgh—Of the Commonwealth System of …, priority 2011, dated 2018).

Test system: CD8+ T cells from HLA-A2+ normal donors or HLA-A2+ melanoma patients
Assay: In vitro sensitization of human CD8+ T cells with TASA peptide-pulsed autologous DC, IFN-γ ELISA against peptide-pulsed T2 cells
Format: cell-based
Protocol: The indicated peptides were pulsed onto autologous DC and used to prime and boost CD8^+ T cells isolated from the peripheral blood of eight normal HLA-A2^+ donors or ten HLA-A2^+ patients with melanoma. Seven days after the primary in vitro sensitization (IVS) (melanoma patients) or a secondary IVS boost (normal donors), T cells were analyzed for their reactivity against HLA-A2^+ T2 cells pulsed with the relevant peptide vs. the negative control HIV-nef190-198 peptide. After 24 hours of co-culture, cell-free supernatants were analyzed for levels of secreted IFN-γ using a commercial ELISA. Data are reported in Bar and Whisker plots, with p-values provided for paired pre- versus post-IVS data from normal donors and patients. In addition, p<0.05 was detected for MEL-Post versus ND-Post for the following peptides: DLK1 (309), NG2 (770), NG2 (2238), PDGFRβ (891) and RGS5 (5).
In vitro assessment of human CD8^+ T cell responses against TASA- or TAA-derived peptides. Peripheral blood mononuclear cells (PBMC) were obtained by venipuncture or leukapheresis from HLA-A2^+ normal donors or HLA-A2^+ melanoma patients with written consent under IRB-approved protocols (Table 3). CD8^+ T cells were then isolated by MACS (Miltenyi Biotec, Auburn, Calif.) and either not stimulated or stimulated with autologous, TASA peptide-pulsed DC as previously described (Tatsumi et al., Cancer Res., 63:4481-4489, 2003). Normal donor T cells were stimulated with TASA peptide-pulsed DC twice on a weekly schedule, with responder T cells harvested for analysis of their specificity 5 days after the booster stimulation (i.e. day 12 of T cell-DC co-culture). Melanoma patient CD8^+ T cells were analyzed after a single round of stimulation with TASA peptide-pulsed, autologous DC (i.e. day 5 of T cell-DC co-culture) as indicated. For DC-based stimulations, DC were pulsed with an equimolar (1 μM each) pool of the TASA peptides (Table 4) for 4 h at 37° C. at 5% CO2 tension. These antigen-loaded DC were then used to stimulate autologous CD8^+ T cells at a T cell-to-DC ratio of 10:1 to generate a bulk population of responder T cells. T cells were maintained in IMDM media supplemented with 10% human AB serum, 100 U/ml penicillin, […], 10 mM L-glutamine and MEM non-essential amino acids (all reagents from Invitrogen, except human AB serum that was purchased from Sigma-Aldrich, St. Louis, Mo.). Responder CD8^+ T cells were analyzed for reactivity against control (HLA-A2^+) T2 cells or T2 cells pulsed with individual TASA or TAA peptides (1 μM for 4 h at 37° C.) at a CD8^+ T cell-to-T2 cell ratio of 5:1 for 24 h. Harvested cell-free supernatants were consequently assessed for hIFN-γ content using a specific ELISA (BD Biosciences, San Diego, Calif.) with a lower detection limit of 4.7 pg/ml.
CD8^+ T cells from HLA-A2^+ normal donors or HLA-A2^+ melanoma patients recognize TASA-derived peptides in vitro. To assess whether the TASA-derived peptides identified in the HHD tumor model were also capable of being recognized by human CD8^+ T cells, IVS was performed using T cells isolated from the peripheral blood of HLA-A2^+ donors or HLA-A2^+ patients with melanoma. DC were pulsed with peptides derived from a given TASA for 4 h at 37° C., then washed and used as stimulator cells for autologous CD8^+ T cells. In cases where more than one peptide existed for a given protein, DC were pulsed with an equimolar (10 μM) mixture of each peptide. Two rounds of IVS using TASA for normal donors and a single-round of IVS using TASA for melanoma patients was applied. HLA-A2^+ normal donors (FIG. 4; Tables 4, 5A and 5B) and melanoma patients (FIG. 4; Tables 4, 5A and 5B) were each capable of recognizing many of the TASA-derived peptides.

Row | Substance | Specific CD8+ T Cell Response, HLA-A2+ Normal Donors (of 8) (number of responding donors of 8, response = IFN-γ >30 pg/ml and >2 fold HIV-nef control) | Specific CD8+ T Cell Response, HLA-A2+ Melanoma Patients (of 10) (number of responding patients of 10, response = IFN-γ >30 pg/ml and >2 fold HIV-nef control) | Specific CD8+ T cell Production of IFN-γ in Response to TASA (donor Mel1, melanoma patient) | Specific CD8+ T cell Production of IFN-γ in Response to TASA (donor Mel2, melanoma patient) | Specific CD8+ T cell Production of IFN-γ in Response to TASA (donor Mel4, melanoma patient) | Specific CD8+ T cell Production of IFN-γ in Response to TASA (donor Mel6, melanoma patient) | Specific CD8+ T cell Production of IFN-γ in Response to TASA (donor Mel8, melanoma patient) | Specific CD8+ T cell Production of IFN-γ in Response to TASA (donor Mel7, melanoma patient) | Specific CD8+ T cell Production of IFN-γ in Response to TASA (donor ND1, normal donor) | Specific CD8+ T cell Production of IFN-γ in Response to TASA (donor ND2, normal donor) | Specific CD8+ T cell Production of IFN-γ in Response to TASA (donor ND3, normal donor) | Specific CD8+ T cell Production of IFN-γ in Response to TASA (donor ND5, normal donor) | Specific CD8+ T cell Production of IFN-γ in Response to TASA (donor Mel3, melanoma patient) | Specific CD8+ T cell Production of IFN-γ in Response to TASA (donor Mel9, melanoma patient)
1 | LAALPHSCL (listed as Homo sapiens) | 0 | 5 |  |  |  |  |  |  |  |  |  |  |  | 
2 | RGS5: RGS5-derived peptide 5-13 pulsed onto DC or DC.IL12 (LAALPHSCL; listed as Homo sapiens) |  |  | + (Human responses were designated as + if T cell reactivity against T2 cells presenting the indicated peptide (IFN-γ ELISA) was >30 pg/ml and more than 2 fold higher than reactivity versus T2 cells pulsed with the negative control HIV-nef190-198 peptide) | + (Human responses were designated as + if T cell reactivity against T2 cells presenting the indicated peptide (IFN-γ ELISA) was >30 pg/ml and more than 2 fold higher than reactivity versus T2 cells pulsed with the negative control HIV-nef190-198 peptide) | + (Human responses were designated as + if T cell reactivity against T2 cells presenting the indicated peptide (IFN-γ ELISA) was >30 pg/ml and more than 2 fold higher than reactivity versus T2 cells pulsed with the negative control HIV-nef190-198 peptide) | + (Human responses were designated as + if T cell reactivity against T2 cells presenting the indicated peptide (IFN-γ ELISA) was >30 pg/ml and more than 2 fold higher than reactivity versus T2 cells pulsed with the negative control HIV-nef190-198 peptide) | + (Human responses were designated as + if T cell reactivity against T2 cells presenting the indicated peptide (IFN-γ ELISA) was >30 pg/ml and more than 2 fold higher than reactivity versus T2 cells pulsed with the negative control HIV-nef190-198 peptide) |  |  |  |  |  |  | 
3 | TEM1: TEM1-derived peptide 691-700 pulsed onto DC or DC.IL12 (LLVPTCVFLV; listed as Homo sapiens) |  |  | + (Human responses were designated as + if T cell reactivity against T2 cells presenting the indicated peptide (IFN-γ ELISA) was >30 pg/ml and more than 2 fold higher than reactivity versus T2 cells pulsed with the negative control HIV-nef190-198 peptide) |  | + (Human responses were designated as + if T cell reactivity against T2 cells presenting the indicated peptide (IFN-γ ELISA) was >30 pg/ml and more than 2 fold higher than reactivity versus T2 cells pulsed with the negative control HIV-nef190-198 peptide) |  | + (Human responses were designated as + if T cell reactivity against T2 cells presenting the indicated peptide (IFN-γ ELISA) was >30 pg/ml and more than 2 fold higher than reactivity versus T2 cells pulsed with the negative control HIV-nef190-198 peptide) | + (Human responses were designated as + if T cell reactivity against T2 cells presenting the indicated peptide (IFN-γ ELISA) was >30 pg/ml and more than 2 fold higher than reactivity versus T2 cells pulsed with the negative control HIV-nef190-198 peptide) | + (Human responses were designated as + if T cell reactivity against T2 cells presenting the indicated peptide (IFN-γ ELISA) was >30 pg/ml and more than 2 fold higher than reactivity versus T2 cells pulsed with the negative control HIV-nef190-198 peptide) | + (Human responses were designated as + if T cell reactivity against T2 cells presenting the indicated peptide (IFN-γ ELISA) was >30 pg/ml and more than 2 fold higher than reactivity versus T2 cells pulsed with the negative control HIV-nef190-198 peptide) | + (Human responses were designated as + if T cell reactivity against T2 cells presenting the indicated peptide (IFN-γ ELISA) was >30 pg/ml and more than 2 fold higher than reactivity versus T2 cells pulsed with the negative control HIV-nef190-198 peptide) | + (Human responses were designated as + if T cell reactivity against T2 cells presenting the indicated peptide (IFN-γ ELISA) was >30 pg/ml and more than 2 fold higher than reactivity versus T2 cells pulsed with the negative control HIV-nef190-198 peptide) |  | 
4 | EphA2: EphA2-derived peptide 883-891 pulsed onto DC or DC.IL12 (TLADFDPRV; listed as Homo sapiens) |  |  | + (Human responses were designated as + if T cell reactivity against T2 cells presenting the indicated peptide (IFN-γ ELISA) was >30 pg/ml and more than 2 fold higher than reactivity versus T2 cells pulsed with the negative control HIV-nef190-198 peptide) | + (Human responses were designated as + if T cell reactivity against T2 cells presenting the indicated peptide (IFN-γ ELISA) was >30 pg/ml and more than 2 fold higher than reactivity versus T2 cells pulsed with the negative control HIV-nef190-198 peptide) | + (Human responses were designated as + if T cell reactivity against T2 cells presenting the indicated peptide (IFN-γ ELISA) was >30 pg/ml and more than 2 fold higher than reactivity versus T2 cells pulsed with the negative control HIV-nef190-198 peptide) | + (Human responses were designated as + if T cell reactivity against T2 cells presenting the indicated peptide (IFN-γ ELISA) was >30 pg/ml and more than 2 fold higher than reactivity versus T2 cells pulsed with the negative control HIV-nef190-198 peptide) |  |  |  |  | + (Human responses were designated as + if T cell reactivity against T2 cells presenting the indicated peptide (IFN-γ ELISA) was >30 pg/ml and more than 2 fold higher than reactivity versus T2 cells pulsed with the negative control HIV-nef190-198 peptide) | + (Human responses were designated as + if T cell reactivity against T2 cells presenting the indicated peptide (IFN-γ ELISA) was >30 pg/ml and more than 2 fold higher than reactivity versus T2 cells pulsed with the negative control HIV-nef190-198 peptide) | + (Human responses were designated as + if T cell reactivity against T2 cells presenting the indicated peptide (IFN-γ ELISA) was >30 pg/ml and more than 2 fold higher than reactivity versus T2 cells pulsed with the negative control HIV-nef190-198 peptide) | + (Human responses were designated as + if T cell reactivity against T2 cells presenting the indicated peptide (IFN-γ ELISA) was >30 pg/ml and more than 2 fold higher than reactivity versus T2 cells pulsed with the negative control HIV-nef190-198 peptide)
